# From paper PMC12515563, “Kinetic, Spectral, and Structural Characterization of a Heme-Containing Peroxidase From the Skin of Cucurbita maxima” (Biochemistry Research International, 2025)
# Molecular target: T1, horseradish peroxidase (HRP) (Armoracia rusticana, UniProt P00433)
# T1 construct: gene PRXC1A; commercial horseradish peroxidase
# T1 sequence (P00433 31-338): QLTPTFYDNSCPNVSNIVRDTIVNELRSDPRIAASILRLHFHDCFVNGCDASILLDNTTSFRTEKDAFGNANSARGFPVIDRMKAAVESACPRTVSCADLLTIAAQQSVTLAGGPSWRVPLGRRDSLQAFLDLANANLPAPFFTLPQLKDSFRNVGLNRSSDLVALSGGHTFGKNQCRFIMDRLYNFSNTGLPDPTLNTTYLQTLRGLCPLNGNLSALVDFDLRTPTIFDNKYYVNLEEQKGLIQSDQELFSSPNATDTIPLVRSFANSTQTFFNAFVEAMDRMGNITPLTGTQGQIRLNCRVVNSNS
# Assay: UV-vis absorption difference spectra (data not shown)
# Type: binding
smiles,measurement,value
CC(=O)O [acetate],UV-vis absorption difference spectra (data not shown),both HRP and PKS demonstrated similar effects with acetate in the current study (data not shown)
